Where two headings read alike, the source gives them in different places.
Key:
[1] = tested on: RNA Polymerase II Serine 5 phosphorylation (Rpb1 CTD, downstream substrate of CDK7) in A549 cells; assay: Imaging-based cellular RNA PolII Ser5 phosphorylation assay in A549 cells; assay type: cell-based, human; details: wild-type CDK7, RNA PolII Ser5 phosphorylation, averaged over all measurements; for IC50: Homo sapiens, A549, A549 cells, read-out: CDK7_A549 Wild-type CDK7 (pIC50) (converted); for CDK7_A549 Wild-type CDK7 (pIC50): A549 cells
Procedure, shortened: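 IC50 derived by fitting % control (DMSO high, 10 μM reference low) against concentration, with Hill slope. Readout: high-content imaging of phospho-Ser5 Rpb1 CTD antibody staining in fixed, permeabilized A549 cells exposed to compound 3 h after 20 h culture in 1% FBS DMEM.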

[2] = tested on: RNA Polymerase II Serine 5 phosphorylation in A549 cells overexpressing CDK7-mutant (C312S); assay: Imaging-based cellular RNA PolII Ser5 phosphorylation assay in A549 cells overexpressing CDK7-mutant (C312S); assay type: cell-based, human; details: RNA PolII Ser5 phosphorylation, averaged over all measurements; for IC50: Homo sapiens, A549, A549 cells overexpressing CDK7-mutant (C312S), read-out: CDK7_A549 mutant hCDK7(pIC50) (converted); for CDK7_A549 mutant hCDK7(pIC50): A549 cells overexpressing CDK7-mutant (C312S)
Procedure, shortened: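 Readout was automated imaging of anti-phospho-Ser5 Rpb1 CTD immunofluorescence, with IC50 fitted to % control versus concentration. Cells were A549 stably overexpressing non-covalently targetable CDK7 C312S alongside wild-type, exposed to compound 3 h at 37 °C. DMSO and 10 μM reference compound served as controls.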

[3] = molecular target: CDK7/cyclinH/MAT1 trimeric complex (Homo sapiens, UniProt P50613); assay: In vitro CDK7 assay, potency of irreversible covalent inhibitors (kinact/KI), coupled PK/LDH ADP readout at 340 nm
[4] = read-out: CDK7 (20 nM enz.) (kinact/KI, M^−1*s^−1), 20 nM enzyme
[5] = read-out: CDK7 (20 nM enz.) (kobs/[I], M^−1*s^−1), 20 nM enzyme
[6] = CDK7 (20 nM enz.) (KI, μM), 20 nM enzyme
[7] = read-out: CDK7 (20 nM enz.) (kinact, s^−1), 20 nM enzyme
[8] = CDK7 (KI(μM)), […], 1 mM ATP, room temperature, averaged values over all measurements
[9] = read-out: CDK7 (kinact, s^−1), kinact = maximal rate of inactivation, 1 mM ATP, room temperature, averaged values over all measurements
[10] = read-out: CDK7 (kinact/KI, M^−1*s^−1), potency of irreversible covalent inhibitors, 1 mM ATP, room temperature, averaged values over all measurements

Sequence of CDK7/cyclinH/MAT1 trimeric complex (P50613 whole entry): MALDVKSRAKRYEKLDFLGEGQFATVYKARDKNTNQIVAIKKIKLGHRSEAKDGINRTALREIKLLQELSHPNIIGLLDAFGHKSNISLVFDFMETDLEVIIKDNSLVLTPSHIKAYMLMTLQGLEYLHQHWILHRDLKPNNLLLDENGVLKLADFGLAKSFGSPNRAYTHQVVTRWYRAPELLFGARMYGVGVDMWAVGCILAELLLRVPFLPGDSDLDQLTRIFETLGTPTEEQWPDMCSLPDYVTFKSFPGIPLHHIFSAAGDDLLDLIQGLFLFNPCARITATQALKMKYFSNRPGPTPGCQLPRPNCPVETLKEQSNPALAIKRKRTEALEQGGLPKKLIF
Sequence of CDK7/cyclinH/MAT1 trimeric complex (P51946 whole entry partner): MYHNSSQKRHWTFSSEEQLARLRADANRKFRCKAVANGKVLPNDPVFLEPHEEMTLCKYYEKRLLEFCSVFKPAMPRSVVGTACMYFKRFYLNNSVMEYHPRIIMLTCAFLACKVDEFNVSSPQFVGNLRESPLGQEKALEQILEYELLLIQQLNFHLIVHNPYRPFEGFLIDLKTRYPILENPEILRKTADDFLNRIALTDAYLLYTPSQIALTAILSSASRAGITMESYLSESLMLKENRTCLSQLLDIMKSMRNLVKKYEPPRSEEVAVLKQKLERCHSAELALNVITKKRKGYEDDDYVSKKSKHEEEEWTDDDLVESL
Sequence of CDK7/cyclinH/MAT1 trimeric complex (P51948 whole entry partner): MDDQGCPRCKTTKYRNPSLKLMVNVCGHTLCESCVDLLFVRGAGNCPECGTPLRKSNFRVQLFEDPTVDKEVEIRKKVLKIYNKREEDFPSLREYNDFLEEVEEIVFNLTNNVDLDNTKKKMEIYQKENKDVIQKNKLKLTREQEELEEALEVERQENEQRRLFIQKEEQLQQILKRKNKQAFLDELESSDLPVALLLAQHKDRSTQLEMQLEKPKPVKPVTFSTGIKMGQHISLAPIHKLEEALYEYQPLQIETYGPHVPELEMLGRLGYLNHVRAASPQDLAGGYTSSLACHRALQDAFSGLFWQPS

Structure (SMILES)	IC50 [1] [nM]	IC50 [2] [nM]	kinact/KI [3, 4] [M⁻¹ s⁻¹]	Ki [3, 6] [µM]	kinact [3, 7] [s⁻¹]	other results
CC#CC(=O)N1CC(N2CC(c3cc(C#N)c4c(c3)Nc3nccc(C5CCOCC5)c3[C@@H](C)O4)C2)C1 (single isomer, unassigned) [Compound 475]	204	7590	351			
C=C(C(=O)N1CC(N2CCC(c3cc4c(c(C)n3)OCc3c(N5CCOCC5)ccnc3N4)CC2)C1)n1cccn1 [Compound 496]	14.1	7240				kinact/KI [3, 5]: 680 M⁻¹ s⁻¹
CC#CC(=O)N1CC[C@@H](N2CCC(c3cc4c(c(C)n3)OCc3c(-c5cnn(C)c5)ccnc3N4)CC2)C1 (single isomer, unassigned) [Compound 299]	87.1	> 10000	615	0.0959	5.9e-05	
Cc1nc(C2CCN(C3CN(C(=O)/C=C/C(=O)OC(C)C)C3)CC2)cc2c1OCc1c(-c3cnn(C)c3)ccnc1N2 [Compound 436]	575	> 10000	138	0.311	4.3e-05	
C=CC(=O)N1CCC(N2CC(c3cc(C)c4c(c3)Nc3nccc(-c5cnn(C)c5)c3CO4)C2)CC1 [Compound 100]	51.3	3310				CDK7 (20 nM enz.) (kinact, s^−1) ([3]; 20 nM enzyme): 5.051e-05 s⁻¹; CDK7 (20 nM enz.) (kinact/KI, M^−1*s^−1) ([3]; 20 nM enzyme): 1179.87 M⁻¹ s⁻¹
CC#CC(=O)N1CC[C@@H](N2CC(c3cc4c(c(C5CC5)n3)O[C@H](C)c3c(N5CCOCC5)ccnc3N4)C2)C1 (single isomer, unassigned) [Compound 464]	7590	> 10000	5.64	4.03	2.27e-05	
C=CC(=O)N1CC(N2CCC(c3ccc4c(c3)Nc3ncc(C#N)c(N5CCOCC5)c3CO4)CC2)C1 [Compound 45]	1150	> 10000				Ki [3, 8]: 0.123 µM; kinact [3, 9]: 0.000137 s⁻¹; kinact/KI [3, 10]: 1110 M⁻¹ s⁻¹
C=CC(=O)N1CC(N2CCC(c3ccc4c(c3)Nc3nccc(-c5cnn(C)c5)c3C(C)(C)O4)CC2)C1 [Compound 260]				0.0256		CDK7_A549 Wild-type CDK7 (pIC50) [1]: 7.1; CDK7_A549 mutant hCDK7(pIC50) [2]: <5; CDK7 (20 nM enz.) (kinact, s^−1) ([3]; 20 nM enzyme): 4.64e-05 s⁻¹; CDK7 (20 nM enz.) (kinact/KI, M^−1*s^−1) ([3]; 20 nM enzyme): 1810.44 M⁻¹ s⁻¹
C=CC(=O)N1CCC(N2CCC(c3cc4c(c(C)n3)O[C@H](C)c3c(N5CCOCC5)ccnc3N4)CC2)CC1 (single isomer, unassigned) [Compound 406]	~9.77	1820	366	0.495	0.000181	
C=CC(=O)N1CC(N2CC(c3ccc4c(c3)Nc3nccc(-c5cnn(C)c5)c3C(C)O4)C2)C1 (centres unmarked) [Compound 197]	123	> 10000	596	0.134	7.96e-05	
CC#CC(=O)N1CC[C@@H](N2CCC(c3cc4c(c(C)n3)OCc3c(N5CCOCC5)ccnc3N4)CC2)C1 (single isomer, unassigned) [Compound 310]	75.9	> 10000	547	0.115	6.29e-05	
C=CC(=O)N1CC(N2CCC(c3ccc4c(c3)Nc3nccc(N5CC=C(CCO)CC5)c3CO4)CC2)C1 [Compound 12]	537	> 10000				kinact/KI [3, 10]: 296 M⁻¹ s⁻¹
C=CC(=O)N1CC(N2CC[C@@H](c3cc4c(c(C)n3)O[C@H](C)c3c(N5CCOCC5)ccnc3N4)C2)C1 (single isomer, unassigned) [Compound 245]	56.2	> 10000	645	0.0559	3.61e-05	
C=CC(=O)N1CC(N2CCC(c3ccc4c(c3)Nc3nccc(N5CCOCC5)c3[C@@H](C)O4)CC2)C1 (single isomer, unassigned) [Compound 89]	60.3	> 10000				kinact/KI [3, 5]: 923 M⁻¹ s⁻¹
C=CC(=O)N1CC(N2CCC(c3ccc4c(c3)Nc3nccc(N5CCCOCC5)c3CO4)CC2)C1 [Compound 53]	186	> 10000				kinact/KI [3, 10]: 773 M⁻¹ s⁻¹
C=CC(=O)N1CC[C@@H](N2CC(c3cc4c(c(C5CC5)n3)OCc3c(N5CCOCC5)ccnc3N4)C2)C1 (single isomer, unassigned) [Compound 427]				0.0447		CDK7_A549 Wild-type CDK7 (pIC50) [1]: 6.99; CDK7_A549 mutant hCDK7(pIC50) [2]: <5; CDK7 (20 nM enz.) (kinact, s^−1) ([3]; 20 nM enzyme): 7.839e-05 s⁻¹; CDK7 (20 nM enz.) (kinact/KI, M^−1*s^−1) ([3]; 20 nM enzyme): 1751.84 M⁻¹ s⁻¹

Structure (SMILES)	IC50 [1] [nM]	IC50 [2] [nM]	kinact/KI [3, 4] [M⁻¹ s⁻¹]	Ki [3, 6] [µM]	kinact [3, 7] [s⁻¹]	other results
C=CC(=O)Nc1ccc(-c2ccc3c(c2)Nc2nccc(N4CCOCC4)c2CO3)cn1 [Compound 178]	22.4	6760				kinact/KI [3, 5]: 1910 M⁻¹ s⁻¹
C=CC(=O)N1CC[C@@H](N2CC(c3cc(C)c4c(c3)Nc3nccc(-c5cnn(C)c5)c3CO4)C2)C1 (single isomer, unassigned) [Compound 194]	58.9	> 10000	530	0.0892	4.72e-05	
CC#CC(=O)N1CCC(n2ccc(-c3cc4c(c(C)n3)OCc3c(N5CCOCC5)ccnc3N4)cc2=O)CC1 [Compound 414]	251	> 10000	714	0.0611	4.36e-05	
CC#CC(=O)N1CC[C@H](N2CC(c3cc(C)c4c(c3)Nc3nccc(N5CCOCC5)c3[C@@H](C)O4)C2)C1 (single isomer, unassigned) [Compound 288]	129	10000	619	0.0411	2.54e-05	
CC#CC(=O)N1CCC(n2cc(-c3cc4c(c(C)n3)OCc3c(N5CCOCC5)ccnc3N4)cn2)CC1 [Compound 399]	447	> 10000	78.8	0.0839	6.61e-06	
CC#CC(=O)N1CC(N2CC(c3cc4c(c(CCC)n3)OCc3c(N5CCOCC5)ccnc3N4)C2)C1 [Compound 368]	191	> 10000	429	0.103	4.43e-05	
CC#CC(=O)N1CC(N2CC(c3cc4c(c(C)n3)O[C@H](C)c3c(N5CCOCC5)ccnc3N4)C2)C1 (single isomer, unassigned) [Compound 440]				0.205		CDK7_A549 Wild-type CDK7 (pIC50) [1]: 6.79; CDK7_A549 mutant hCDK7(pIC50) [2]: <5; CDK7 (20 nM enz.) (kinact, s^−1) ([3]; 20 nM enzyme): 0.000050424 s⁻¹; CDK7 (20 nM enz.) (kinact/KI, M^−1*s^−1) ([3]; 20 nM enzyme): 246.333 M⁻¹ s⁻¹
C=CC(=O)N1CC(N2CCC(c3ccc4c(c3)Nc3nccc(C5CCOCC5)c3CO4)CC2)C1 [compound 15]						CDK7_A549 Wild-type CDK7 (pIC50) [1]: 7.26; CDK7_A549 mutant hCDK7(pIC50) [2]: <5; CDK7 (kinact/KI, M^−1*s^−1) ([3]; potency of irreversible covalent inhibitors, 1 mM ATP, room temperature, averaged values over all measurements): 320.6 M⁻¹ s⁻¹
C=CC(=O)N1CC[C@H]2CN(c3ccc4c(c3)Nc3nccc(N5CCOCC5)c3CO4)CC[C@@H]21 (racemic) [Compound 48]	1620	> 10000				Ki [3, 8]: 0.325 µM; kinact [3, 9]: 4.98e-05 s⁻¹; kinact/KI [3, 10]: 153 M⁻¹ s⁻¹
C=CC(=O)N1CC(N2CC[C@H](c3ccc4c(c3)Nc3nccc(N5CCOCC5)c3CO4)[C@@H](F)C2)C1 [Compound 110]	257	> 10000		0.23		CDK7 (20 nM enz.) (kinact, s^−1) ([3]; 20 nM enzyme): 5.833e-05 s⁻¹; CDK7 (20 nM enz.) (kinact/KI, M^−1*s^−1) ([3]; 20 nM enzyme): 253.792 M⁻¹ s⁻¹
C=CC(=O)N1CC(N2CCC(c3cc(C)c4c(c3)Nc3nccc(C5CCOCC5)c3CO4)CC2)C1 [Compound 59]	72.4		1480			CDK7_A549 mutant hCDK7(pIC50) [2]: <5.4
C=CC(=O)N1CC[C@@H](N2CC(c3cc4c(c(C)n3)O[C@@H](C)c3c(N5CCOCC5)ccnc3N4)C2)C1 (single isomer, unassigned) [Compound 456]	2880	> 10000	4.65	24.6	0.000114	
CC#CC(=O)N1CC[C@H](N2CC(c3cc(C)c4c(c3)Nc3nccc(N5CCOCC5)c3[C@H](C)O4)C2)C1 (single isomer, unassigned) [Compound 281]	692	> 10000	59.6	0.683	4.07e-05	
C=CC(=O)N1CCC(N2CCC(c3cc(C)c4c(c3)Nc3nccc(N5CCOCC5)c3CO4)CC2)C1 (centres unmarked) [Compound 78]	26.9	8130				kinact/KI [3, 5]: 908 M⁻¹ s⁻¹
C=CC(=O)N1CC[C@@H](N2CCC(c3cc(C)c4c(c3)Nc3nccc(-c5cnn(C)c5)c3CO4)CC2)C1 (single isomer, unassigned) [Compound 134]	38	~8710				kinact/KI [3, 5]: 1530 M⁻¹ s⁻¹

From patent US20240254138A1, “TRICYCLIC PYRIMIDINES AS CYCLIN-DEPENDENT KINASE 7 (CDK7) INHIBITORS” (JANSSEN PHARMACEUTICA NV, priority 2021, published 2024)
